The results in this text go back to patent publication US20160199439A1, “Application of recombinant immunoregulatory protein of ganoderma lucidum in preparation of drug for treating focal cerebral ischemia” (priority 2013, published 2016).

The test system of test [1] is rat focal cerebral ischemia models. Description: NSS grading (modified neurological severity scores, 16-point system) in rat focal cerebral ischemia models. The following applies: GM-1 positive drug control group. It counts as in vivo. As for the experimental part: Preparing rat focal cerebral ischemia models through a modified Zea Longa method; grading the rats which were fully conscious after operation according to a modified NSS grading standard (16-point system); arranging a sham operation group, a model group, a positive drug control group, a rLZ-8 high-dosage group (70 μg·kg^−1), a rLZ-8 middle-dosage group (35 μg·kg^−1) and a rLZ-8 low-dosage group (17.5 μg·kg^−1); and injecting intraperitoneally, twice a day, wherein the same volume of physiological saline was injected into the sham operation group and the model group, for consecutive 7 days. A positive drug in the positive drug control group was the GM-1.

Test [2] can be described thus: Weights of rats with focal cerebral ischemia. The format is in vivo, rat. The following applies: GM-1 group, in g (unit assumed). The source says: Weighing rats before modeling; preparing rat focal cerebral ischemia models through a modified Zea Longa method; weighing the rats on the first postoperative day; and weighing the rats after consecutively administrating a drug for 7 days.

The subject of test [3] is ED-1 positive cells. Description: ED-1 positive cell expression in brain tissue (immunohistochemistry). The following applies: GM-1 group; after modeling for 8 days. The format is in vivo, rat. As for the experimental part: The rLZ-8 high-dosage group, the rLZ-8 middle-dosage group and the rLZ-8 low-dosage group were provided and prepared by physiological saline to respectively have a concentration of 70 μg·ml^−1, 35 μg·ml^−1 and 17.5 μg·ml^−1. ED-1 antibody was provided by Wuhan Boster Biological Technology Co., Ltd., and PV-6000 two-step method immunohistochemical detection reagent was provided by Beijing Zhongshan Golden Bridge Biotechnology Co., Ltd.
The sham operation group, the model group, the positive drug control group, the rLZ-8 high-dosage group (70 μg·kg^−1), the rLZ-8 middle-dosage group (35 μg·kg^−1) and the rLZ-8 low-dosage group (17.5 μg·kg^−1) were provided.
After being embedded by conventional paraffin and sectioned, a brain tissue paraffin section was tested through an immunologic tissue chemical staining method to test an ED-1 positive cell expression thereof. […]

Test [4] deals with apoptotic cells. Description: Test of apoptosis in brain tissue by TUNEL kit. The format is in vivo, rat. The following applies: GM-1 group; after modeling for 8 days. As for the experimental part: The rLZ-8 high-dosage group, the rLZ-8 middle-dosage group and the rLZ-8 low-dosage group were provided and prepared by physiological saline to respectively have a concentration of 70 μg·ml^−1, 35 μg·ml^−1 and 17.5 μg·ml^−1. TUNEL kit.
The sham operation group, the model group, the positive drug control group, the rLZ-8 high-dosage group (70 μg·ml^−1), the rLZ-8 middle-dosage group (35 μg·ml^−1) and the rLZ-8 low-dosage group (17.5 μg·ml^−1) were provided.
After being embedded by conventional paraffin and sectioned, a brain tissue paraffin section was processed according to instructions of the TUNEL kit. […]

On to “monosialotetrahexosyl ganglioside sodium injection [GM-1]”, for which the NSS grading in test [1] (1st day) amounted to 4.33 ± 1.30; in test [1] (2nd day), 3.92 ± 1.38; in test [1] (3rd day), 3.58 ± 1.24; in test [1] (4th day) it was 2.75 ± 1.09; in test [1] (5th day), 2.50 ± 1.00; in test [1] (6th day) it was 2.58 ± 1.08. Moreover, the NSS grading is reported as 2.41 ± 1.00 in test [1] (7th day) and 4.75 ± 1.30 in test [1] (i.p. twice a day, 0th day, n=12). Further, the Weights of rats in test [2] (0th day after modeling (before modeling)) was found to be 266.17 ± 21.21; in test [2] (1st day after modeling), 246.17 ± 21.99; in test [2] (8th day after modeling, drug for 7 days), 251.17 ± 40.31. The “ED-1 positive cell number” value in test [3] worked out at 13.87 ± 2.39. Further, the “Apoptotic cell number (TUNEL)” value in test [4] is 23.10 ± 2.47.
